Measurements: patent US20110294890A1, “Neramexane for the treatment or prevention of inner ear disorders” (MERZ PHARMA GmbH & CO. KGaA, priority 2010, published 2011)

Tested on: subjects with subjective tinnitus of at least moderate severity
Assay: Double blind placebo controlled Phase III clinical trial of neramexane for treatment of tinnitus (TBF-12 total score)
Type: in vivo, human
Settings: for Change in the TBF-12 total score from baseline to Week 17/EOT, LSmean: 50/75 mg/d, mean adjusted for covariates (ANCOVA); for Change in the TBF-12 total score from baseline to Week 17/EOT, LSmean / Change in the TBF-12 total score from baseline to Week 17/EOT, Mean change (SD): 17 weeks; for Change in the TBF-12 total score from baseline to Week 17/EOT, LSmean / Change in the TBF-12 total score from baseline to Week 17/EOT, Mean change (SD) / Comparison between treatment groups, LSmean (ner − pla), change in TBF-12 total score: FAS-LOCF; for Change in the TBF-12 total score from baseline to Week 17/EOT, Mean change (SD): neramexane mesylate 50/75 mg/d by body weight; for Comparison between treatment groups, LSmean (ner − pla), change in TBF-12 total score: estimated difference Neramexane − Placebo from ANCOVA
Protocol: The objective of this clinical trial was to assess the efficacy of neramexane as a treatment for tinnitus. The primary objective of this 17 weeks double-blind, randomized placebo-controlled study was to compare the efficacy, tolerability and safety of neramexane mesylate at two different, weight-adapted dosages (50 or 75 mg/d) with placebo in subjects with subjective tinnitus of at least moderate severity.
In a double-blind, multicenter, randomized, placebo-controlled, parallel-group study, the efficacy of neramexane in subjects suffering from tinnitus of at least moderate severity was assessed. A total of 411 patients, who fulfilled particular inclusion criteria and met none of particular exclusion criteria, were randomized to one of two double-blind treatment groups (neramexane mesylate 50 or 75 mg/d depending on body weight, or placebo).
Subjects were treated for 17 weeks with neramexane or placebo including a four- resp. five-week up-titration period, depending on study drug dose, followed by 30 to 35 days treatment-free observational period. Alternatively to treatment-free observational period, subjects could immediately at Week 17 start with a one-year open label treatment study.
Main inclusion criteria were: • Diagnosis of “subjective tinnitus” • Tinnitus duration of at least 3 months and less or equal to 12 months (subacute tinnitus) • Persistent, uni- or bilateral tinnitus • THI-12≧9 (=at least moderate tinnitus severity) • Hospital Anxiety and Depression (HADS) subscores for depression ≦10 and for anxiety ≦10
Main exclusion criteria were: • Intermittent or pulsatile tinnitus • Tinnitus as a concomitant symptom of an otological/neurological disease • Concomitant tinnitus treatment • Application for a pension/retirement pay or granted pension/retirement because of tinnitus.
Patients with a target daily dose of 50 mg neramexane mesylate (<90 kg body weight) were to reach steady state after four weeks, patients with a target total daily dose of 75 mg neramexane mesylate (≧90 kg body weight) were to reach steady state after five weeks of treatment. For patients who experienced dose limiting adverse events with the 75 mg dose, the dosage was reduced by switching the patient to 50 mg/day. Patients unable to tolerate a minimum dosage of 50 mg/day discontinued.
Patient eligibility for the study was evaluated via a check of inclusion/exclusion criteria. The subject completed a Tinnitus-Beeinträchtigungs-Fragebogen (TBF-12=Tinnitus. Handicap Inventory (THI-12)) (i.e., a 12-item modified and validated version (Greimel K V et al., Tinnitus-Beeinträchtigungs-Fragebogen (TBF-12). Manual. Frankfurt am Main: Swets & Zeitlinger B. V.; 2000) of the 25-item Tinnitus Handicap Inventory or THI (Newman C W, et al. Development of the Tinnitus Handicap Inventory. Arch Otolaryngol Head Neck Surg 1996; 122(2): 143-148; Newman C W, et al. Psychometric adequacy of the Tinnitus Handicap Inventory (THI) for evaluating treatment outcome. J Am Acad Audiol 1998; 9(2): 153-160.)). The TBF-12 items can be grouped in 2 factorial scores: an emotional-cognitive and a functional-communicational factor. At Visit 1. patients also completed a Tinnitus Rating Scale (TRS, Likert scores on Tinnitus Loudness, Tinnitus Impact on Life, and Tinnitus Annoyance), and the Hospital Anxiety and Depression Scale Audiology/psychoacoustic measurements were performed unless results from previous examinations performed no more than one year prior to Screening were available.
Visit 7 (Week 17, end of treatment (EOT)). This visit occurred at the end of the 12-week fixed-dose double-blind treatment period. This visit was also to be performed for patients who discontinued prematurely. The subject was asked about adverse events and changes in concomitant medication/disease, which changes are documented. A clinical laboratory evaluation was performed as well as ECG and physical examination (including body weight). Blood samples were collected in order to determine neramexane concentration. […]

CC1(C)CC(C)(C)CC(C)(N)C1 [Neramexane, 1-amino-1,3,3,5,5-pentamethylcyclohexane]
Change in the TBF-12 total score from baseline to Week 17/EOT, LSmean (Females, N=74): −3.8 | Change in the TBF-12 total score from baseline to Week 17/EOT, Mean change (SD) (Females, N=74): −3.1 (4.2) | Comparison between treatment groups, LSmean (ner − pla), change in TBF-12 total score (Females, P-value 0.0122): −1.7 | Change in the TBF-12 total score from baseline to Week 17/EOT, LSmean (Total population, N=203): −3.0 | Change in the TBF-12 total score from baseline to Week 17/EOT, Mean change (SD) (Total population, N=203): −2.5 (4.3) | Comparison between treatment groups, LSmean (ner − pla), change in TBF-12 total score (Total population, P-value 0.1997): −0.5 | Improvement for the treatment of tinnitus in subgroups of women (women 26 to 65 or 46 to 65 years of age, and/or free from clinical signs of depression (HADS-D 7 or less)): an improvement | Improvement for the treatment of tinnitus in women (TBF-12 total score) (women, compared to the effect found for the total patient population): statistically significant improvement
